Columns and labels:
actin = target: T1, actin (Rattus norvegicus, UniProt P68035); assay: Gel shift assay, reducing/non-reducing western blot of cardiac myofibrils; assay type: biochemical; conditions: for actin higher molecular weight forms: non-reducing, lost with 5 mM DTT
T1 construct: Rat myofibrillar preparations, as described in [7], were obtained from frozen ventricles (Pel Freez Biologicals); tissue Pel Freez Biologicals; host or cells: myofibrils from frozen rat ventricles
Method: (§1) FIG. 4. Validation and characterizations of HNO modifications. 1 μg of rat cardiac myofibrils treated with HNO donors or control compounds were separated under reducing or nonreducing conditions and western blots probed for candidate proteins tropomyosin, actin, myosin heavy chain, myosin light chain 1 (n=4). […] Silver stained gel analysis indicated a protein band with […] gel mobility that was lost with DTT.
FIG. 5. Evaluation of the interaction between actin and tropomyosin with NCA treatment. Purified rabbit skeletal tropomyosin (0.03 μg) and isolated rat cardiac myofibrils (1 μg) were treated with NCA or AS and evaluated by 1D non-reducing western blot probing for tropomyosin (A) and actin (B) (n=3). […] (C) Fluorescent DIGE analysis of samples from A and B independent labeled indicates NCA specific band (green) above purified TM (blue) and below AS treated myofibrils (red) (n=3). (D) MS analysis of the same gel region identified both tropomyosin and actin in non-reduced lane but not with DTT treatment (n=2).
Gel shift assay. 10 μg of rat myofibrils/treatment were diluted to 0.5 μg/μl in HEN including 0.1% (w/v) SDS and exposed to a treatment for 20 min at 37° C. Samples were diluted to 0.1 ug/ul in 1×LSD sample buffer, treated with 0, 5 or 100 mM DTT and separated by SDS PAGE. Proteins were silver stained or transferred to nitrocellulose and immunoblotted with primary antibodies for tropomyosin sarcomeric (CH1, Sigma-Aldrich Co., St. Louis, Mo., USA), actin (AC-40, Sigma-Aldrich Co., St. Louis, Mo., USA), myosin light chain 1 (MLM527, Abcam, Cambridge, Mass., USA) or myosin heavy chain (3-48, Abcam, Cambridge, Mass., USA). For some silver stained gel bands of interest in-gel digestion was done following the protocol outlined in Shevchenko et al.. Gel slices of interest were excised from the gels cut into 1 mm^3 pieces. Silver stained gel pieces were destained in 1:1(v/v) 30 mM Potassium ferricyanide and 100 mM Sodium thiosulfate and wash three times with ddH2O. Gel pieces were dehydrated in 100% acetonitrile and reswelled in 10 mM DTT and incubated at 55° C. for 1 hour. After the DTT solution was removed, a solution of 55 mM iodoacetimide was added and gel slices were incubated at room temperature protected from light. Gel slices were then washed 3 times with 50% (v/v) ACN, 25 mM (NH4)HCO3 and then fully dehydrated in 100% ACN and dried in a speed vac. Gel pieces were reswelled in a 12.5 ng/μL trypsin (Promega, Madison Wis. USA) solution containing 25 mM (NH4)HCO3 and incubated at 37° C. for >16 hours. Digested peptides were extracted by addition of 5% (v/v) formic acid and incubation for 15 min followed by addition of an equal volume of 100% ACN and 15 min incubation, this step was repeated and the extracts were combined. […]

[1] = target: T2, myosin heavy chain and light chain 1 (Rattus norvegicus, UniProt P02563+P16409); assay: as above; assay type: biochemical; conditions: non-reducing; lost with 5 mM DTT
T2 construct: 1 μg of rat cardiac myofibrils treated with HNO donors or control compounds; tissue Pel Freez Biologicals; host or cells: myofibrils from frozen rat ventricles
T2 sequence (P02563 whole entry): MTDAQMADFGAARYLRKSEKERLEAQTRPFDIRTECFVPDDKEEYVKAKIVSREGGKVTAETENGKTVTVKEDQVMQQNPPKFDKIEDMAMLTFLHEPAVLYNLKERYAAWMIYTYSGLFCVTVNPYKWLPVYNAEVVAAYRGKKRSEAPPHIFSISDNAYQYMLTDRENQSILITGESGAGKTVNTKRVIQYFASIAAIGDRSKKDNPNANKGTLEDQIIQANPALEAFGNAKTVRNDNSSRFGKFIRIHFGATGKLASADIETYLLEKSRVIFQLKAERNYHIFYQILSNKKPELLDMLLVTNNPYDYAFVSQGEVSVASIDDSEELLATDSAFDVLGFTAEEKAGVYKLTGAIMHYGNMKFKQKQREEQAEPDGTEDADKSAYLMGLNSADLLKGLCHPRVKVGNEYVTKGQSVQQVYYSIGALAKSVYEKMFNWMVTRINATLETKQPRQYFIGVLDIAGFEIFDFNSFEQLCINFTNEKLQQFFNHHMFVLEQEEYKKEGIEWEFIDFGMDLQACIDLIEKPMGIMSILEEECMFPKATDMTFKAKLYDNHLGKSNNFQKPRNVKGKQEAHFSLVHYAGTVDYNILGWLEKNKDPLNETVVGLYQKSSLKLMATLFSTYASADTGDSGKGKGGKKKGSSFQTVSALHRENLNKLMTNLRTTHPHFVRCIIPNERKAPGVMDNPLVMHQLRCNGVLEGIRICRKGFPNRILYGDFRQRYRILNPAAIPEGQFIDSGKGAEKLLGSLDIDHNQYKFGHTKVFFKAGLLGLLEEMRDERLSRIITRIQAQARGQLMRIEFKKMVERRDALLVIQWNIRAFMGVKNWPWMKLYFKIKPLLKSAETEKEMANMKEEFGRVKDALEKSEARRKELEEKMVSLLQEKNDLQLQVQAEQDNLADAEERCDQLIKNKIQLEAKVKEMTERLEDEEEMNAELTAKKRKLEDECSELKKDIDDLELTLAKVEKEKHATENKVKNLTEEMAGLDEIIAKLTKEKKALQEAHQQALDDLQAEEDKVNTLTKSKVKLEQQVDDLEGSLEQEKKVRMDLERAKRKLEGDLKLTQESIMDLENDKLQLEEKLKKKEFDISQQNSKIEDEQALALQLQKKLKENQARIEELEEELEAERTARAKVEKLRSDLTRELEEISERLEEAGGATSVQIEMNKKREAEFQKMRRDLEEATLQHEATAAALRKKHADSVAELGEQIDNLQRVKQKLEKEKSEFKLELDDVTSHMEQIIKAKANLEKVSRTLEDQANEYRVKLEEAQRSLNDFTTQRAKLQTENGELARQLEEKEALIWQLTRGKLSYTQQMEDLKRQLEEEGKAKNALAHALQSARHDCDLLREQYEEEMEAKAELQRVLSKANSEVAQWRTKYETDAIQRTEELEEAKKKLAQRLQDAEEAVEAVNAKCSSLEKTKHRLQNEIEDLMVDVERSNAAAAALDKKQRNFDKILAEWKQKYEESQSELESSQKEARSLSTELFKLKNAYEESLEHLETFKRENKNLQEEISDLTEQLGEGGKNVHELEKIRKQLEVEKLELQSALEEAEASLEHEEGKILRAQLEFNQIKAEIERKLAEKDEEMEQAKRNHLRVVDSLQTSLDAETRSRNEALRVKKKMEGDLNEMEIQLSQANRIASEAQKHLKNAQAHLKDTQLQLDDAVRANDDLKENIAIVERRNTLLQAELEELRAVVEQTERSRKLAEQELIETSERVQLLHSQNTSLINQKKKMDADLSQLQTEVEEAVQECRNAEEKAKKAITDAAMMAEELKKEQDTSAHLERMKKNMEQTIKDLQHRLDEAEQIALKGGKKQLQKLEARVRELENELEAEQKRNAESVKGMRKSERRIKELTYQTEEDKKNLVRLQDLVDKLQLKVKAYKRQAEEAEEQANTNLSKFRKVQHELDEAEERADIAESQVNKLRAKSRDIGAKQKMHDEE
T2 sequence (P16409 2-200 limits assumed): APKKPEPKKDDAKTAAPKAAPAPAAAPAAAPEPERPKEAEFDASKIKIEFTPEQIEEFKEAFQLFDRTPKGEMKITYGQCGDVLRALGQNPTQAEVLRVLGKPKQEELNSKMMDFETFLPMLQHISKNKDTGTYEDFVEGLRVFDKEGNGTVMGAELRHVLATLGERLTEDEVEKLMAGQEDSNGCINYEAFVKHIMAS
T2 sequence (P08733 2-166 partner limits assumed): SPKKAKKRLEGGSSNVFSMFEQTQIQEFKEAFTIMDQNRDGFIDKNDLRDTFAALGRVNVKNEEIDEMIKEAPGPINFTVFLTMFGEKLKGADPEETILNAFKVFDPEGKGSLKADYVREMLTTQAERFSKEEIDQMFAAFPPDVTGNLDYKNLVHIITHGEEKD
Method: as §1
Gel shift assay. 10 μg of rat myofibrils/treatment were diluted to 0.5 μg/μl in HEN including 0.1% (w/v) SDS and exposed to a treatment for 20 min at 37° C. Samples were diluted to 0.1 ug/ul in 1×LSD sample buffer, treated with 0, 5 or 100 mM DTT and separated by SDS PAGE. Proteins were silver stained or transferred to nitrocellulose and immunoblotted with primary antibodies for tropomyosin sarcomeric (CH1, Sigma-Aldrich Co., St. Louis, Mo., USA), actin (AC-40, Sigma-Aldrich Co., St. Louis, Mo., USA), myosin light chain 1 (MLM527, Abcam, Cambridge, Mass., USA) or myosin heavy chain (3-48, Abcam, Cambridge, Mass., USA). For some silver stained gel bands of interest in-gel digestion was done following the protocol outlined in Shevchenko et al.. Gel slices of interest were excised from the gels cut into 1 mm^3 pieces. Silver stained gel pieces were destained in 1:1(v/v) 30 mM Potassium ferricyanide and 100 mM Sodium thiosulfate and wash three times with ddH2O. […]

skeletal muscle = assay: Steady-state force-[Ca2+]i relations of skeletal muscle; assay type: cell-based, rat
Text: FIG. 6. MLC1 Cys81 necessary for increase in Fmax induced by treatment with HNO donors. (a) Sequence alignment comparing isoforms of rat cardiac (SEQ ID NO:16) and skeletal MLC1 (SEQ ID NO:17) in the region surrounding cardiac Cys81. (b) Steady-state force-[Ca^2+]i relations in control (o) versus NCA-treated (•) from cardiac or skeletal trabeculae indicating loss of increase in maximum force with loss of Cys81 in skeletal isoform with NCA (n=5, each group). (c) 2D Gel shift assay (non-reduced, NR and reduced, DTT) using 10 μg of skeletal or cardiac myofibrils indicating loss of higher molecular weight forms of MLC1 in skeletal HNO treated preparations while maintaining higher molecular weight form of TM (n=3).
To determine if MLC1 Cys81 is involved in the increased maximum force production, the effect of HNO donors was investigated in skeletal muscle preparations. Skeletal muscle isoforms of myofilament proteins contain all of the potential target Cys except for MLC1, which lacks the candidate site Cys81 providing a natural mutant sequence (FIG. 6A). […] The same insensitivity of Fmax to AS was also observed in skinned skeletal muscles (data not shown).

intact trabeculae = assay: Steady-state force-[Ca2+]i relationship in intact trabeculae (tetanized with ryanodine); assay type: cell-based, rat; design: [Ca2+]i required for 50% of activation (Ca50): unit not given here
[2] = AS applied to isolated trebecula or skinned muscle preparations

SMILES	actin higher molecular weight forms (actin)	MLC1 homodimer population [1]	Fmax (skeletal muscle; skinned skeletal muscles, AS, data not shown)	Ca50 (intact trabeculae; [2])	Hill coefficient (intact trabeculae; [2])	maximum force of contraction (intact trabeculae; [2])	antibody epitope binding of monomeric actin (actin; western blot)	Ca50 (skeletal muscle; skeletal muscle, NCA 25 μmol/L)	Fmax (skeletal muscle; skeletal muscle, NCA 25 μmol/L)	Hill (skeletal muscle; skeletal muscle, NCA 25 μmol/L)	Hill (intact trabeculae; NCA 20 μmol/L, intact muscles)	[Ca2+]i required for 50% of activation (Ca50) (intact trabeculae; NCA 20 μmol/L, intact muscles)	maximal Ca2+-activated force (Fmax) (intact trabeculae; NCA 20 μmol/L, intact muscles)
[Na+].[Na+].[O-][N+]([O-])=NO [AS, Angeli's Salt]	approximately 80 kDa	~50 kDa	insensitivity	without altering	without altering	increase							
CC(=O)OC1(N=O)CCCCC1 [NCA, 1-nitrosocyclohexylacetate]	approximately 80 kDa	~50 kDa					loss of antibody epitope binding	0.8 ± 0.1 µM	33±3.8 mN/mm^2	4.36±0.81	4.92±0.84	0.42±0.01	123±18 mN/mm^2
